Results taken from ChEMBL document CHEMBL4414646, “Eutypellacytosporins A-D, Meroterpenoids from the Arctic Fungus Eutypella sp. D-1” (J Nat Prod, 2019).

Experiments:
Type in all cases: functional, cell-based
[1] = tested on: Huh-7; assay: Cytotoxicity against human HuH7 cells assessed as reduction in cell viability incubated for 72 hrs by CCK8 assay; details: Huh-7, 72 h
[2] = tested on: PANC-1; assay: Cytotoxicity against human PANC1 cells assessed as reduction in cell viability incubated for 72 hrs by CCK8 assay; details: PANC-1, 72 h
[3] = tested on: SW1990; assay: Cytotoxicity against human SW1990 cells assessed as reduction in cell viability incubated for 72 hrs by CCK8 assay; details: SW1990, 72 h
[4] = tested on: DU-145; assay: Cytotoxicity against human DU145 cells assessed as reduction in cell viability incubated for 72 hrs by CCK8 assay; details: DU-145, 72 h

Row | Structure (SMILES) | IC50 [1] | IC50 [2] | IC50 [3] | IC50 [4]
1 | C=C1[C@@H](OC(=O)C(C)(C)[C@H](C)O)C[C@H]2C[C@@H]1[C@]21C[C@@]2(C[C@H](C)C(=O)O2)O[C@@H]1OCC1=C(/C=C/CCCCC)[C@@H](O)[C@@H]2O[C@@]23C[C@H](O)C(C)(C)O[C@@H]13 | 8.4 µM | 9.7 µM | 7.3 µM | 17.1 µM
2 | CCCCC/C=C/C1=C(CO)[C@@H]2OC(C)(C)[C@@H](O)C[C@@]23O[C@H]3[C@@H]1O | > 50 µM | > 50 µM | > 50 µM | > 50 µM
3 | C=C1[C@@H](OC(=O)C(C)(C)[C@H](C)O)C[C@H]2C[C@@H]1[C@]21C[C@@]2(C[C@H](C)C(=O)O2)O[C@H]1OCC1=C(/C=C/CCCCC)[C@@H](O)[C@@H]2O[C@@]23C[C@H](O)C(C)(C)O[C@@H]13 | 4.9 µM | 7.9 µM | 4.9 µM | 11 µM
4 | C=C1[C@@H](OC(=O)C(C)(C)[C@H](C)O)C[C@H]2C[C@@H]1[C@]21C[C@]2(C[C@H](C)C(=O)O2)O[C@@H]1OCC1=C(/C=C/CCCCC)[C@@H](O)[C@@H]2O[C@@]23C[C@H](O)C(C)(C)O[C@@H]13 | 11.2 µM | 10.2 µM | 9.6 µM | 13.5 µM
5 | C=C1[C@@H](OC(=O)C(C)(C)[C@H](C)O)C[C@H]2C[C@@H]1[C@]21C[C@]2(C[C@H](C)C(=O)O2)O[C@H]1OCC1=C(/C=C/CCCCC)[C@@H](O)[C@@H]2O[C@@]23C[C@H](O)C(C)(C)O[C@@H]13 | 9.6 µM | 7.5 µM | 8.2 µM | 13.4 µM
